Experiments:
Test in all cases: normalised response (% of control), CellTox Green; higher = less cell death (100 = DMSO, 0 = benzethonium chloride kill control)
Conditions in all cases: incubation time: 72 h
[1] = system: MFM-223
How it was run: (§1)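 Breast cancer cell lines were exposed for 72 h in 384-well plates to compound at 5 concentrations, 10-fold apart, covering a 10,000-fold range fixed for each compound. Plates were read for CellTox Green fluorescence and CellTiter-Glo luminescence and normalised to 0.1 % DMSO (100) and a positive kill control (0). Each value is the normalised signal at one concentration of the series.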

[2] = system: HCC1143
How it was run: as §1

[3] = system: MDA-MB-436
How it was run: as §1

[4] = system: MDA-MB-468
How it was run: as §1

[5] = system: CAL-148
How it was run: as §1

[6] = system: CAL-51
How it was run: as §1

[7] = system: CAL-85-1
How it was run: as §1

[8] = system: HDQ-P1
How it was run: as §1

[9] = system: Hs578T
How it was run: as §1

[10] = system: HCC1937
How it was run: as §1

[11] = system: BT-474
How it was run: as §1

[12] = system: BT-549
How it was run: as §1

[13] = system: MDA-MB-231
How it was run: as §1

[14] = system: MCF-10A
How it was run: as §1

[15] = system: HCC1599
How it was run: as §1

[16] = system: DU-4475
How it was run: as §1

[17] = system: MDA-MB-453
How it was run: as §1

[18] = system: CAL-120
How it was run: as §1

| SMILES | normalised response [1] [%] | normalised response [2] [%] | normalised response [3] [%] | normalised response [4] [%] | normalised response [5] [%] | normalised response [6] [%] | normalised response [7] [%] | normalised response [8] [%] | normalised response [9] [%] | normalised response [10] [%] | normalised response [11] [%] | normalised response [12] [%] | normalised response [13] [%] | normalised response [14] [%] | normalised response [15] [%] | normalised response [16] [%] | normalised response [17] [%] | normalised response [18] [%] |
| --- | --- | --- | --- | --- | --- | --- | --- | --- | --- | --- | --- | --- | --- | --- | --- | --- | --- | --- |
| Cc1sc2c(c1C)C(c1ccc(Cl)cc1)=N[C@@H](CC(=O)OC(C)(C)C)c1nnc(C)n1-2 [(+)JQ1] (10000 nM) | 97.8 | 123 | 72.9 | -39.7 | 50.8 | 14.5 | 24 | 87.6 | 100 | 68.2 | 92.8 | 66.8 | 62.5 | 101 | 87.9 | 81.4 | 102 | 91.3 |
| CC1=C2C[C@H]3[C@@H](CC=C4C[C@@H](O)CC[C@@]43C)[C@@H]2CC[C@]12O[C@@H]1C[C@H](C)CN[C@H]1[C@H]2C [Cyclopamine] (10000 nM) | 89.6 | – | 92.2 | 155 | 100 | 98.9 | 66.8 | 110 | 51.4 | – | 98 | 59 | 116 | 58.9 | 101 | 103 | 103 | 97.8 |
| COc1cc2c(cc1O)CC[C@@H]1[C@@H]2CC[C@]2(C)[C@@H](O)CC[C@@H]12 [2-methoxyestradiol] (1000 nM) | 64.7 | 99.8 | 85.5 | 92.5 | 85.8 | 98.3 | 83.5 | 108 | 84.6 | 111 | 77.8 | 96.5 | 34.1 | 98.5 | 93.5 | 96.6 | 108 | 91.8 |
| CC1=C2C[C@H]3[C@@H](CC=C4C[C@@H](O)CC[C@@]43C)[C@@H]2CC[C@]12O[C@@H]1C[C@H](C)CN[C@H]1[C@H]2C [Cyclopamine] (1000 nM) | 75.1 | 100 | 99.3 | 78.1 | 95.1 | 95.5 | 101 | 96.9 | 104 | 70 | 101 | 108 | 119 | 108 | 104 | 101 | 103 | 101 |
| CC[C@@H]1C(=O)OC[C@@H]1Cc1cncn1C [Pilocarpine] (40000 nM) | 97.4 | 80.7 | 92.3 | – | 96.3 | 98.4 | 114 | – | – | 97.7 | 98.6 | 107 | 93.1 | 83.9 | 97 | 96.7 | 93.9 | 52.5 |
| Cn1cc(C2=Nc3cc(NC(=O)C(N)C4CCCCC4)cc4c3C2=CNNC4=O)cn1 (centres undefined) (10000 nM) | 10.9 | 115 | 92.7 | 13.5 | 58.5 | -9.5 | 59.8 | -67.6 | 84.6 | 95.9 | 97.1 | 39.3 | 54.2 | 31.3 | 82.4 | 83.1 | 41.1 | 89.9 |
| Cn1cc(C2=Nc3cc(NC(=O)C(N)C4CCCCC4)cc4c3C2=CNNC4=O)cn1 (centres undefined) (1000 nM) | 87.6 | 4.8 | 85 | 126 | 86.4 | 56 | 45.8 | 97.4 | -123 | 113 | 92.3 | 95.4 | 54.1 | -64.4 | 73.3 | 95.2 | 91.8 | 80.1 |
| CC1(C)CNc2cc(NC(=O)c3cccnc3NCc3ccncc3)ccc21 [Motesanib] (1000 nM) | 97 | 103 | 79 | 108 | 103 | 96.1 | 91.8 | 108 | 83.6 | – | 98 | 123 | 97.7 | 95.4 | 97.3 | 100 | 101 | 99.5 |
| Nc1nc2[nH]cnc2c(=S)[nH]1 [Thioguanine] (1000 nM) | 92.8 | – | 101 | 121 | 94 | 102 | 112 | 109 | 103 | 114 | 96.4 | 108 | 48.4 | 98.7 | 97.8 | 104 | 106 | 103 |
| O=C1CN2Cc3c(ccc(Cl)c3Cl)N=C2N1 [Anagrelide] (1000 nM) | 102 | – | 87.3 | 137 | 56.1 | 59.7 | 103 | – | 83.8 | 88.6 | 97 | 97 | 86.2 | 104 | 94.3 | 97.4 | 105 | 97.8 |
| CC(=O)O[C@@]12CO[C@@H]1C[C@H](O)[C@@]1(C)C(=O)[C@H](O)C3=C(C)[C@@H](OC(=O)[C@H](O)[C@@H](NC(=O)OC(C)(C)C)c4ccccc4)C[C@@](O)([C@@H](OC(=O)c4ccccc4)[C@H]21)C3(C)C [Docetaxel] (1000 nM) | 53.9 | 55.4 | 71.9 | 134 | 84.2 | 45.6 | 29.6 | 35.5 | 22.6 | 46.5 | 58.4 | 38.7 | -47.2 | 36.3 | 88.5 | 98.5 | 92.4 | 89.9 |

Reference: the supplement of paper PMC4862054
